From ChEMBL document CHEMBL5728216, “Cyclopropyl fused thiazine derivatives as beta-secretase inhibitors and methods of use” (2021)

Assays:
Cathepsin D = Cathepsin D (Homo sapiens, UniProt P07339); test: In Vitro Enzymatic FRET Assay: Recombinant CatD was expressed in CHO cells. The assay buffer for CatD was 0.05 M citrate pH 3.5, 10% DMSO final, 5 mM CHAPS. The CatD enzyme (9 nM) was pre-incubated for one hour with inhibitors, typically in about 1 uL of DMSO according to a serial dilution, is added thereto. The assays was effectively started by the addition of different FRET substrates (20 nM for CatD) and the combination was incubated for one hour. The FRET assay was terminated with by addition of tris buffer, which raises the pH to neutrality, and the fluorescence was determined. The FRET substrate was a peptide with commercially available fluorophore and quencher, on opposite sides of the CatD cleavage site. The CatD substrate peptide sequence was based on sequence #1 of Table 1 from Gulnik et al., FEBS Lett. 413(2):379-384 (1997). Proteolytic cleavage of the FRET substrate released quenching of fluorescence (CatD excitation 500 nm and emission 580 nm).; type: cell-based
Beta-secretase 1 = Beta-secretase 1 (Homo sapiens, UniProt P56817); test: In Vitro Enzymatic FRET (Fluorescence Resonance Energy Transfer) Assays: The cDNAs for both human recombinant BACE1 and 2 with C-terminal 6-His Tags were cloned into transient protein expression vectors, which were subsequently transfected into mammalian cell lines. These recombinant proteins were further purified using Ni-NTA affinity chromatography (Qiagen). The assay buffer used in these screens was 0.05 M acetate, pH 4.5, 8% DMSO final, 100 μM genapol (which is a nonionic detergent, below its Critical Micelle Concentration). The β-secretase enzyme (0.02 nM for BACE1 and 0.64 nM for BACE2), which was pre-incubated for one hour with the test compound, typically in about 1 uL of DMSO according to a serial dilution, was added thereto. The assay was effectively started by the addition of FRET substrate (50 nM) and the combination was incubated for one hour. The FRET assay was terminated by the addition of tris buffer, which raised the pH to neutrality, and the fluorescence was determined. The FRET substrate was a peptide with commercially available fluorophore and quencher, on opposite sides of the BACE cleavage site. The specific FRET substrate used in this assay was made by Amgen in-house. […]
Beta-secretase 2 = molecular target: T1, Beta-secretase 2 (Homo sapiens, UniProt Q9Y5Z0); test: These recombinant proteins were further purified using Ni-NTA affinity chromatography (Qiagen).
T1 sequence (Q9Y5Z0 whole entry): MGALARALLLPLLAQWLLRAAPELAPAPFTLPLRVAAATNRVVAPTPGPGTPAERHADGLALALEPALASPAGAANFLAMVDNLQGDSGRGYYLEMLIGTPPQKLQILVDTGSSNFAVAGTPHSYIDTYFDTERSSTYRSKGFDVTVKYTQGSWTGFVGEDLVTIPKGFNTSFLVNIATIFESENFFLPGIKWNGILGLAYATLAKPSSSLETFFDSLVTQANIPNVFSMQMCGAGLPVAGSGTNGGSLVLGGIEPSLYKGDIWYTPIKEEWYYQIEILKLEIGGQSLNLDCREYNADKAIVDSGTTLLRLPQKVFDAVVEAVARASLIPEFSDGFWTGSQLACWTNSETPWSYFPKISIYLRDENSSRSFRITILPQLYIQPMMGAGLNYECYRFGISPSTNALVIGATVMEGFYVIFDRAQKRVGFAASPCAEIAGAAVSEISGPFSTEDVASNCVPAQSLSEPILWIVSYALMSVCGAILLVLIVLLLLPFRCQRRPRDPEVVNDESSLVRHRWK

Chain of Cathepsin D (P07339 65-162 limits assumed): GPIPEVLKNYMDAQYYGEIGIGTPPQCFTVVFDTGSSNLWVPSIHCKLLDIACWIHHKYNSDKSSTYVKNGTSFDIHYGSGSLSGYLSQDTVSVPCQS
Chain of Cathepsin D (P07339 169-412 limits assumed): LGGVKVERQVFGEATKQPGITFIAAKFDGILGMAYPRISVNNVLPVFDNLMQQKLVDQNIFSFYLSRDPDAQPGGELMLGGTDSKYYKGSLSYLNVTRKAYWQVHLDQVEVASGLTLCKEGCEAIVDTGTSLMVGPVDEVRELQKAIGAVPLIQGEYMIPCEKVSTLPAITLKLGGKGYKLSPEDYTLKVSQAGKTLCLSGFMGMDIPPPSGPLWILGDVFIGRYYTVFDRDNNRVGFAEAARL
Chain of Beta-secretase 1 (P56817 whole entry): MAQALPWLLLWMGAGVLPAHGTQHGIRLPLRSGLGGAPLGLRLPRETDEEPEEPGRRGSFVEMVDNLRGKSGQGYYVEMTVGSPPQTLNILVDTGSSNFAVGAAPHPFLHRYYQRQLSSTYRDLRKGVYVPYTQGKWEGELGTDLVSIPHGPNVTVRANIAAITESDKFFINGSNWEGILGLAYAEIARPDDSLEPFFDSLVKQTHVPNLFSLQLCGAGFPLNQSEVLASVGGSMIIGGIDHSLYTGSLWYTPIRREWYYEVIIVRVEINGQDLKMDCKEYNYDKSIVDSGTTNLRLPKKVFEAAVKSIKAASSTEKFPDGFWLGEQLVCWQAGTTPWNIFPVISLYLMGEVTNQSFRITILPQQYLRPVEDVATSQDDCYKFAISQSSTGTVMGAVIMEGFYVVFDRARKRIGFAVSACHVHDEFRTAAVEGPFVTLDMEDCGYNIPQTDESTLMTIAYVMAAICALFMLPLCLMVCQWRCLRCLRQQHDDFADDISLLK

Structure (SMILES): COC[C@]12CC1[C@@](C)(c1cc(C#Cc3ncc(Cl)cc3C)ccc1F)N=C(N)S2 (stereo partly drawn)
- IC50 (Cathepsin D): > 400000 nM
- IC50 (Beta-secretase 1): 129 nM
- IC50 (Beta-secretase 2): 613 nM
